Format: in vivo, human
Conditions: percent; CLCr > 60 mg/dL (normal renal function), n = 22

## teicoplanin
  Patients with plasma teicoplanin >10mg/L: 63%
